# Source: PubChem BioAssay (NCI)
#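 These data come from cells grown in 96-well plates and exposed to compound for 48 hours at five concentrations. GI50 = concentration required for 50% inhibition of growth. TGI marks complete inhibition of growth.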
# Legend:
# Assay in all cases: growth of human tumour cells (NCI), 48 h
# HT29 colon = system: HT29 colon
# SF-295 CNS = system: SF-295 CNS
# CAKI-1 renal = system: CAKI-1 renal
# NCI-H522 lung = system: NCI-H522 lung
# SW-620 colon = system: SW-620 colon
# HCC-2998 colon = system: HCC-2998 colon
# PC-3 prostate = system: PC-3 prostate
# DU-145 prostate = system: DU-145 prostate
# NCI/ADR-RES ovarian = system: NCI/ADR-RES ovarian
# NCI-H460 lung = system: NCI-H460 lung
Structure (SMILES),TGI (HT29 colon),TGI (SF-295 CNS),TGI (CAKI-1 renal),TGI (NCI-H522 lung),TGI (SW-620 colon),TGI (HCC-2998 colon),TGI (PC-3 prostate),TGI (DU-145 prostate),TGI (NCI/ADR-RES ovarian),TGI (NCI-H460 lung),GI50 (HT29 colon),GI50 (HCC-2998 colon),GI50 (SF-295 CNS),GI50 (DU-145 prostate),GI50 (NCI/ADR-RES ovarian),GI50 (CAKI-1 renal),GI50 (NCI-H522 lung)
O=c1[nH]c(=S)[nH]c2c1CCCN2,> 100 µM,> 100 µM,> 100 µM,> 100 µM,> 100 µM,–,–,–,–,–,–,–,–,–,–,–,–
CSCCC(NC(=O)C(Cc1c[nH]c2ccccc12)NC(=O)CCNC(=O)OC(C)(C)C)C(=O)NC(CC(=O)O)C(=O)NC(Cc1ccccc1)C(N)=O (stereo not given),> 50 µM,> 50 µM,> 50 µM,> 50 µM,> 50 µM,> 50 µM,> 50 µM,> 50 µM,> 50 µM,–,–,–,–,–,–,–,–
COc1cc(/C=C2\N=C(c3ccccc3)N(c3cc4cc(Sc5ccccc5)ccc4[nH]3)C2=O)ccc1O,> 50 µM,–,> 50 µM,> 50 µM,> 50 µM,> 50 µM,–,> 50 µM,36.1 µM,> 50 µM,–,–,–,–,–,–,–
CC1(C)Cc2ccccc2C(C)(Cl)C(=O)N1 (stereo not given),> 10 µM,> 10 µM,> 10 µM,–,> 10 µM,> 10 µM,> 10 µM,> 10 µM,> 10 µM,> 10 µM,–,–,–,–,–,–,–
C/C(N=NS(=O)(=O)c1c(C)cc(C)cc1C)=C1\C=CC=CN1O,> 100 µM,> 100 µM,> 100 µM,> 100 µM,> 100 µM,> 100 µM,–,–,–,> 100 µM,–,–,–,–,–,–,–
O=C(NNC(=O)c1ccncc1)C(=O)Nc1cc(Cl)c(Cl)cc1Cl,> 100 µM,> 100 µM,> 100 µM,> 100 µM,> 100 µM,57.8 µM,> 100 µM,–,> 100 µM,> 100 µM,–,–,–,–,–,–,–
O=Cc1c2c(cc3c1CC1(C3)Cc3cc4c(c(C=O)c3C1)CCC4)CCC2,> 100 µM,> 100 µM,–,> 100 µM,–,> 100 µM,> 100 µM,–,> 100 µM,–,–,–,–,–,–,–,–
COc1cccc(C2C(C#N)=C(N)Oc3cc(OCCCCCC[P+](c4ccccc4)(c4ccccc4)c4ccccc4)ccc32)c1 (stereo not given),3.67 µM,3.19 µM,3.48 µM,2.49 µM,–,1.68 µM,–,2.21 µM,78.3 µM,–,0.613 µM,0.493 µM,1.58 µM,0.95 µM,11.9 µM,1.68 µM,0.515 µM
COC(=O)c1c(CC(=O)OC(C)C)cc2n(c1=O)Cc1c-2nc2ccccc2c1OC,> 100 µM,> 100 µM,> 100 µM,> 100 µM,> 100 µM,> 100 µM,–,–,–,> 100 µM,–,–,–,–,–,–,–
O=c1cc(-c2ccccc2)oc2cc(OCCCCCCCCCCOc3ccc4c(=O)cc(-c5ccccc5)oc4c3)ccc12,> 100 µM,> 100 µM,> 100 µM,> 100 µM,> 100 µM,> 100 µM,–,–,–,–,–,–,–,–,–,–,–
C/C(=N\Nc1nc2cc(F)ccc2s1)c1ccccn1,3.33 µM,4.67 µM,5.67 µM,2.62 µM,5.37 µM,–,10.4 µM,> 100 µM,0.12 µM,> 100 µM,–,–,–,–,–,–,–
CCOC(=O)C1=C(N2CCCC2)C(=O)C(C(=O)OCC)C1 (stereo not given),–,> 100 µM,> 100 µM,> 100 µM,> 100 µM,> 100 µM,> 100 µM,–,> 100 µM,> 100 µM,–,–,–,–,–,–,–
Cc1ccc(N2Cc3c(ccc4ccccc34)OP2(=S)N2CCCC2)cc1 (stereo not given),> 100 µM,> 100 µM,> 100 µM,> 100 µM,> 100 µM,> 100 µM,–,–,> 100 µM,> 100 µM,–,–,–,–,–,–,–
C[C@@H]1C[C@@H]2OC(=O)[C@]3(C)[C@H]2[C@@H](OC3(C)O)[C@]2(C)C(=O)C=C[C@@H]12 (stereo not given in full),35.1 µM,> 100 µM,62.1 µM,23.8 µM,51.9 µM,35.1 µM,> 100 µM,> 100 µM,> 100 µM,–,–,–,–,–,–,–,–
Cc1cc(NS(=O)(=O)c2ccc(Nc3c4ccccc4nc4c(C(=O)NC(CO)(CO)CO)cccc34)cc2)no1,> 100 µM,> 100 µM,> 100 µM,34.4 µM,> 100 µM,55.7 µM,> 100 µM,> 100 µM,> 100 µM,–,–,–,–,–,–,–,–
CC(=O)c1c(-c2ccco2)c(C#N)c(=S)n(C2OC(CO)C(O)C(O)C2O)c1C (stereo not given),> 100 µM,> 100 µM,> 100 µM,–,> 100 µM,–,> 100 µM,> 100 µM,> 100 µM,> 100 µM,–,–,–,–,–,–,–
O=C(O)C12C=CC(C1)c1ccccc12 (stereo not given),> 100 µM,> 100 µM,> 100 µM,–,> 100 µM,> 100 µM,–,–,–,> 100 µM,–,–,–,–,–,–,–
C=C1C(=O)OC2C[C@@]3(C)CCCC(=C)C3CC12 (stereo not given in full),24 µM,23.6 µM,19.4 µM,3.65 µM,14.4 µM,26.7 µM,–,–,–,18.1 µM,–,–,–,–,–,–,–
CN1COCN=C1NC#N,> 100 µM,> 100 µM,> 100 µM,> 100 µM,> 100 µM,> 100 µM,–,–,–,> 100 µM,–,–,–,–,–,–,–
NCCCNCCSP(=O)(O)O,> 750 µM,> 750 µM,> 750 µM,738 µM,> 750 µM,> 750 µM,–,–,> 750 µM,> 750 µM,–,–,–,–,–,–,–
O=Cn1c2ccccc2c2ccccc21,–,> 100 µM,–,> 100 µM,> 100 µM,> 100 µM,–,–,–,> 100 µM,–,–,–,–,–,–,–
COc1ccc(/C=C/C(=O)c2cc(CN(C)C)c(O)c(CN(C)C)c2)cc1,> 100 µM,91.1 µM,> 100 µM,43.2 µM,> 100 µM,–,85.8 µM,> 100 µM,> 100 µM,49.3 µM,–,–,–,–,–,–,–
CC(=O)OC1C2CCC3CC2C2(SCCS2)C31 (stereo not given),> 100 µM,> 100 µM,–,> 100 µM,> 100 µM,> 100 µM,> 100 µM,> 100 µM,> 100 µM,> 100 µM,–,–,–,–,–,–,–
CC(C)=CCNc1ncnc2c1ncn2CCC(=O)O,> 100 µM,> 100 µM,–,> 100 µM,> 100 µM,> 100 µM,> 100 µM,> 100 µM,> 100 µM,> 100 µM,–,–,–,–,–,–,–
C=C1c2nc3ccccc3n2C=C(c2ccccc2)N1c1ccc(C)cc1,–,> 100 µM,> 100 µM,> 100 µM,> 100 µM,36.7 µM,> 100 µM,> 100 µM,> 100 µM,> 100 µM,–,–,–,–,–,–,–
